Paper PMC3892769 (Journal of medicinal chemistry, 2008)

Legend:
[1] = system: human FPGS; details: at concentrations up to 1045 µM; cited from earlier work
[2] = molecular target: E. coli TS (Escherichia coli, UniProt P0A884); test: Inhibition of E. coli TS; format: biochemical
[3] = molecular target: human TS (Homo sapiens, UniProt P04818); test: Inhibition of human TS; format: biochemical
[4] = molecular target: T1, human DHFR (Homo sapiens, UniProt P00374); test: Inhibition of human DHFR; format: biochemical
T1 sequence (P00374 1-187): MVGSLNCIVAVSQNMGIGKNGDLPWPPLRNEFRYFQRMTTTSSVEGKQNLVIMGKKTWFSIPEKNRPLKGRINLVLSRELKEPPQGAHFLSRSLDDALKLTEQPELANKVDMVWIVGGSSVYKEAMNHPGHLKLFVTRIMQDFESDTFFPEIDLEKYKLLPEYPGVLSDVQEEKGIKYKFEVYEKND

[5] = molecular target: T2, T. gondii TS (Toxoplasma gondii, UniProt Q07422); test: biochemical
T2 sequence (Q07422 1-610): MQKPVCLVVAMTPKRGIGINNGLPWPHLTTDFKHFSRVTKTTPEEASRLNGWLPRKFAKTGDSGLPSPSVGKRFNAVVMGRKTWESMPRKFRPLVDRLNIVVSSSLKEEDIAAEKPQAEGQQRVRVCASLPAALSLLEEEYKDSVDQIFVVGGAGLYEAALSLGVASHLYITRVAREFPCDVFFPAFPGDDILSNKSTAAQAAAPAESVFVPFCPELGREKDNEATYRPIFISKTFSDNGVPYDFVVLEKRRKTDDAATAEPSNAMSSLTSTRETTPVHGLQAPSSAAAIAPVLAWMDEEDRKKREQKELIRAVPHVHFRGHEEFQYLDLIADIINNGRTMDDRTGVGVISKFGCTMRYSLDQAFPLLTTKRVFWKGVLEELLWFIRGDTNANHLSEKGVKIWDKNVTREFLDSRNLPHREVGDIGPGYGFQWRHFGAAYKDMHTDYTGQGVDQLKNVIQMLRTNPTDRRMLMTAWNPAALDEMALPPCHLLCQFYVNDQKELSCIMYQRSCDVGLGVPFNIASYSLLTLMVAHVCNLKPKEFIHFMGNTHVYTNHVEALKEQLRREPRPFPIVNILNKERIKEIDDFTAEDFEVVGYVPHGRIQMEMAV

[6] = molecular target: E. coli DHFR (Escherichia coli, UniProt P0ABQ4); test: Inhibition of E. coli DHFR; format: biochemical; details: read-out: % inhibition of E. coli DHFR at the stated concentration
E. coli DHFR, sequence (P0ABQ4 whole entry): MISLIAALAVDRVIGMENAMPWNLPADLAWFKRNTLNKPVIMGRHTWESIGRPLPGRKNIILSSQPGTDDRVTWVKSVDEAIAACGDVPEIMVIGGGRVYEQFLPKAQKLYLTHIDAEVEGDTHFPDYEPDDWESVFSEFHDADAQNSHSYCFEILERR

[7] = molecular target: T3, T. gondii DHFR (Toxoplasma gondii, UniProt Q07422); test: biochemical
T3 sequence (Q07422 1-610): T2 sequence (Q07422 1-610)

E. coli TS, sequence (P0A884 whole entry): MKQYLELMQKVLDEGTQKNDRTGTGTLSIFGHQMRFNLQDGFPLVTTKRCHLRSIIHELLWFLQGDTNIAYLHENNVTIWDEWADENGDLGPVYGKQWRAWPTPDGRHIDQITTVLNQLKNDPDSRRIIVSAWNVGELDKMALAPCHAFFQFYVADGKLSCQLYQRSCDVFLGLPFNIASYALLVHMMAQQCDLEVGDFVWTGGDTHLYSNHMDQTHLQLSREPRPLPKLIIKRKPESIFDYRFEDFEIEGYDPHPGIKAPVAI
human TS, sequence (P04818 whole entry): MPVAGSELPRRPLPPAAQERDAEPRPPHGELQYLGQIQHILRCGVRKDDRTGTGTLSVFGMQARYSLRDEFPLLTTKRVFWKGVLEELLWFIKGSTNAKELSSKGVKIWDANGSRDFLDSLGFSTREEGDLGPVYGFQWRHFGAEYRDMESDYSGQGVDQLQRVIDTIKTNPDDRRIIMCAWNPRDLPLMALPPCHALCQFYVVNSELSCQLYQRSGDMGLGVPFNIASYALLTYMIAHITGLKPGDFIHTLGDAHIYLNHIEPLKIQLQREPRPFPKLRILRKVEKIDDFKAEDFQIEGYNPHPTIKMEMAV

Structure (SMILES) | Substrate for human FPGS [1] | IC50 [2] [µM] | inhibition at 23 µM ([2]; read-out: % inhibition of E. coli TS at the stated concentration) [%] | IC50 [3] [µM] | IC50 [4] [µM] | IC50 [5] [µM] | inhibition at 23 µM ([5]; read-out: % inhibition of T. gondii TS at the stated concentration) [%] | inhibition at 28 µM [6] [%] | IC50 [7] [µM]
Cc1[nH]c2nc(N)[nH]c(=O)c2c1Sc1ccc(C(=O)N[C@@H](CCC(=O)O)C(=O)O)cc1 [Compound 1, N-{4-[(2-amino-6-methyl-4-oxo-4,7-dihydro-3H-pyrrolo[2,3-d]pyrimidin-5-yl)thio]benzoyl}-L-glutamic acid] | not a substrate | – | – | – | – | – | – | – | –
COc1ccc(OC)c(Sc2c(C)sc3nc(N)[nH]c(=O)c23)c1 [Compound 8, 2-Amino-5-[(2,5-dimethoxyphenyl)sulfanyl]-6-methylthieno[2,3-d]pyrimidin-4(3H)-one] | – | > 23 | 36 | 4.6 | 22 | > 23 | 0 | 0 | 0.056
